Measurements reported in publication PMC7942396, “Drug Repurposing Screen for Compounds Inhibiting the Cytopathic Effect of SARS-CoV-2” (Frontiers in Pharmacology, 2021).
pEC50: −log10 of the molar value. Where a name gives a salt, the structure may show the parent alone. Read-outs that look alike come from different tables or passages of the source. Where a SMILES comes first, the peptide text is derived from it. The star is where a group is joined. Cbz = O=C(OCc1ccccc1)*; CH2Cl = ClC*

Experiments:
[1] = system: SARS-CoV-2 (USA_WA1/2020); assay: microbe, parasite or virus in culture; assay type: cell-based; settings: for pEC50: read-out: CPE EC50
[2] = cytotoxicity counter-assay, Vero E6 cells without virus
[3] = read-out: Cytotox CC50, cytotoxicity counter-assay, Vero E6 cells without virus
[4] = SARS-CoV-2 CPE assay, Vero E6 cells
[5] = SARS-CoV-2 CPE assay, Vero E6 cells, confirmed anti-SARS-CoV-2 compounds
[6] = SARS-CoV-2 CPE assay, Vero E6 cells, efficacy
[7] = Vero E6 cells without virus, 72 h
[8] = […], DMSO 0%, no-virus control 100%, hit confirmation

| Structure (SMILES) | % Cytotox (Vero E6 cells; [2]) [%] | CC50 (Vero E6 cells; [3]) [µM] | pEC50 [1, 5] | CPE % Efficacy [1, 6] [%] | further results |
| --- | --- | --- | --- | --- | --- |
| Cl.Cl.O=S(=O)(c1cccc2ccccc12)n1ccc2ccc(N3CCN4CCCC4C3)cc21 (stereo not drawn) [NPS ALX Compound 4a dihydrochloride] | 93.1 | 12.6 |  |  | CPE % Efficacy [1, 4]: 100.0%; pEC50 [1, 4]: 4.90 |
| COc1cccc([C@@H](C)NCCCc2ccccc2Cl)c1 [NPS-R568] | 15.8 | 12.6 | 4.95 | 78.0 |  |
| CC/C(=C(/CC)c1ccc(O)c(CN(CC)CC)c1)c1ccc(O)c(CN(CC)CC)c1 [NSC 33994, reference compound] |  |  |  |  | % Cytotox (Vero E6 cells; [7]): <30%; CPE % Efficacy [1, 8]: 107.6%; pEC50 [1]: 5.05 |
| COc1ccc(-c2cc(C(O)C3CCCCN3)c3ccccc3n2)cc1.Cl.Cl (stereo not drawn) [NSC-23925] | 49.3 | 10 | 5.25 | 40.3 |  |
| C/C(=N\NC(=S)N1CCC1)c1ccccn1 [NSC-319726] | 52.8 | 0.35 | 5.95 | 58.3 |  |
| Cc1ccc(C(=O)Nc2cccc(C(F)(F)F)c2)cc1Nc1nc(-c2cccnc2)nc2c1cnn2C [NVP-BHG712] |  |  | 5.60 | 123.5 | % Cytotox (Vero E6 cells): 58.4%; CC50 (Vero E6 cells): 3.98 µM |
| Cl.Oc1ccc2c3c1O[C@H]1c4[nH]c5ccc(N=C=S)cc5c4C[C@@]4(O)[C@@H](C2)N(CC2CC2)CC[C@]314 [Naltrindole isothiocyanate hydrochloride, reference compound] |  |  |  |  | % Cytotox (Vero E6 cells; [7]): <30%; CPE % Efficacy [1, 8]: 114.7%; pEC50 [1]: 5.00 |
| OC(CNc1ccccc1)Cn1c2ccc(Br)cc2c2cc(Br)ccc21 (stereo not drawn) [P7C3] | 54.5 | 11.2 | 5.40 | 65.2 |  |
| COc1cccc2c1CCCC2CCCN1CCN(C2CCCCC2)CC1 (stereo not drawn) [PB-28] | 19.5 | 12.6 |  |  | CPE % Efficacy [1, 4]: 88.6%; pEC50 [1, 4]: 4.95 |
| CCN(CC)CCCCNc1nc2cc(Cl)c(Cl)cc2nc1-c1ccc(-c2cccs2)s1 [PD-0220245] | 107.5 | 11.2 | 5.45 | 35.5 |  |
| CC(C)c1ccc(NC(=O)C(c2ccccc2)N(C)C(=O)Cc2c[nH]c3ccccc23)cc1 (stereo not drawn) [PG-01] | 110.5 |  | 5.45 | 98.0 |  |
| Cc1cccc(Nc2nc(N[C@@H]3CCCC[C@@H]3N)ncc2C(N)=O)c1 [PRT-060318] | 45.2 | 12.6 | 4.95 | 56.9 |  |
| Cc1cc(CC(C)CC(C)(C)C)n(O)c(=O)c1.NCCO (stereo not drawn) [Piroctone Olamine] | 46.6 | 1.78 | 5.35 | 61.2 |  |
| CCCOC(C(=O)OC1CCN(C)CC1)(c1ccccc1)c1ccccc1.Cl [Propiverine hydrochloride] | 0.0 |  | 4.95 | 44.6 |  |
| O=S(=O)(NCC1CC1)c1ccc(Nc2nccc(N3CCCc4cc(O)ccc43)n2)cc1 [Pyrintegrin] | 70.3 | 3.98 | 6.10 | 76.3 |  |
| Cc1ncc(NC(=O)c2cccc(C(F)(F)F)c2)cc1-c1cnc(OC2CCOCC2)c(N2CCOCC2)c1 [RAF-709] | 56.6 | 8.91 |  |  | CPE % Efficacy [1, 4]: 58.4%; pEC50 [1, 4]: 4.85 |
| CCC(C)CNCC(=O)N1CCc2sccc2C1COc1cccc(C)c1 (stereo not drawn) [RU-SKI 43] | 21.3 |  |  |  | CPE % Efficacy [1, 4]: 72.7%; pEC50 [1, 4]: 4.85 |
| COc1ccc(CN2CCN(CCCSc3cc(C(C)(C)C)c(O)c(C(C)(C)C)c3)CC2)c(OC)c1OC [S-15176 difumarate salt, reference compound] |  |  |  |  | % Cytotox (Vero E6 cells; [7]): <30%; CPE % Efficacy [1, 8]: 127.4%; pEC50 [1]: 5.42 |
| COc1ccc(NS(=O)(=O)c2sc3ccc(Cl)cc3c2C)cc1N1CCNCC1 [SB 271046 hydrochloride, reference compound] |  |  |  |  | % Cytotox (Vero E6 cells; [7]): <30%; CPE % Efficacy [1, 8]: 107.5%; pEC50 [1]: 5.00 |
| Cc1cccc2c1CC[C@H](CN1CCC(c3c(Cl)cccc3Cl)CC1)C[C@@H]2O.Cl [SB 612111 hydrochloride] | 59.7 | 12.6 | 5.05 | 53.8 |  |
| COc1ccc(CCNCc2ccc(OC)c3ccccc23)cc1 [SBI-0087702] | 24.6 | 7.08 | 4.95 | 106.7 |  |
| COc1cc2ncnc(Sc3nnc(C)s3)c2cc1OC [SKLB1002] | 34.8 | 7.08 | 5.45 | 73.0 |  |

| Structure (SMILES) | % Cytotox (Vero E6 cells; [2]) [%] | CC50 (Vero E6 cells; [3]) [µM] | pEC50 [1, 5] | CPE % Efficacy [1, 6] [%] | further results |
| --- | --- | --- | --- | --- | --- |
| O=C1NC(=O)/C(=C/c2cccc(C(F)(F)F)c2)S1 [SMI-4a] | 29.5 |  |  |  | CPE % Efficacy [1, 4]: 43.9%; pEC50 [1, 4]: 4.90 |
| Cc1ccc(NC(=O)C(C)C)cc1C1CCN(Cc2ccc(Oc3ccc(F)c(F)c3)cc2)CC1.Cl [SNAP 94847 hydrochloride] | 95.1 | 12.6 | 5.35 | 60.0 |  |
| C/C(=N\NC(=O)c1cccc(S(=O)(=O)N2CCOCC2)c1)c1cc(Cl)ccc1O [SP2509] | 67.4 | 1 | 5.90 | 42.0 |  |
| CCc1ccccc1OC[C@@H](O)CN[C@H]1CCCc2ccccc21.Cl [SR 59230A hydrochloride] | 13.9 | 17.8 |  |  | CPE % Efficacy [1, 4]: 108.4%; pEC50 [1, 4]: 4.95 |
| O=C(N[C@@H](c1ccccc1)[C@@H]1CCCCN1)c1cccc(C(F)(F)F)c1Cl [SSR-504734] | 15.7 | 7.94 |  |  | CPE % Efficacy [1, 4]: 31.7%; pEC50 [1, 4]: 4.85 |
| Cc1cccc(Nc2nc(-c3ccncc3)cs2)c1 [STF-62247, reference compound] |  |  |  |  | CC50 (Vero E6 cells; read-out: Cytotox CC50, Vero E6 cells without virus, 72 h): 11.2 µM; Shape of concentration-response in the CPE assay ([1]; Figure 3): bell-shaped concentration-responses due to cytotoxicity; CPE % Efficacy [1, 8]: 107.1%; pEC50 [1]: 5.96 |
| COc1cccc(CCc2ccccc2OCC(CN(C)C)OC(=O)CCC(=O)O)c1.Cl (stereo not drawn) [Sarpogrelate hydrochloride] | 21.2 | 15.8 | 4.95 | 30.1 |  |
| CO[C@@H]1[C@@H](O[C@@H]2O[C@H](C)[C@@H](O[C@H]3C[C@@](C)(O)[C@@H](O)[C@H](C)O3)[C@H](N(C)C)[C@H]2O)[C@@H](CC=O)C[C@@H](C)[C@@H](O[C@H]2CC[C@H](N(C)C)[C@@H](C)O2)/C=C/C=C/C[C@@H](C)OC(=O)C[C@H]1OC(C)=O [Spiramycin II] | 0.0 |  |  |  | CPE % Efficacy [1, 4]: 33.4%; pEC50 [1, 4]: 4.85 |
| CC(CN(C)C)CN1c2ccccc2Sc2ccc(C(F)(F)F)cc21 (stereo not drawn) [Trifluomeprazine 2-butenedioate, reference compound] |  |  |  |  | % Cytotox (Vero E6 cells; [7]): <30%; CPE % Efficacy [1, 8]: 90.2%; pEC50 [1]: 5.00 |
| CC(CN(C)C)CN1c2ccccc2Sc2ccccc21.CC(CN(C)C)CN1c2ccccc2Sc2ccccc21.O=C(O)C(O)C(O)C(=O)O (stereo not drawn) [Trimeprazine tartrate] | 0.0 |  |  |  | CPE % Efficacy [1, 4]: 49.5%; pEC50 [1, 4]: 4.90 |
| CCCCNc1ncc2c(-c3ccc(F)cc3)nn(CC3CCC(N)CC3)c2n1 (stereo not drawn) [UNC-569] | 34.2 | 4.92 | 5.01 | 46.0 |  |
| CC[C@H](NC(=O)[C@H](CS(=O)(=O)CC1CC1)N[C@@H](c1ccc(F)cc1)C(F)(F)F)C(=O)C(=O)NC1CC1 [VBY-825, reference compound] |  |  |  |  | % Cytotox (Vero E6 cells; [7]): <30%; CPE % Efficacy [1, 8]: 97.8%; pEC50 [1]: 6.85 |
| CC(C)(O)CNc1ncc(-c2ccnc(Nc3ccncc3)n2)c(CC2CC2)n1 [VPS34 Inhibitor 1, reference compound] |  |  |  |  | % Cytotox (Vero E6 cells; [7]): <30%; CPE % Efficacy [1, 8]: 98.3%; pEC50 [1]: 5.85 |
| CCOC(=O)N[C@@H]1CC[C@@H]2[C@@H](C1)C[C@H]1C(=O)O[C@H](C)[C@H]1[C@H]2/C=C/c1ccc(-c2cccc(F)c2)cn1.O=S(=O)(O)O [Vorapaxar Sulfate] | 32.4 | 12.6 | 5.35 | 57.7 |  |
| COc1cc(N2CCN(C)CC2)ccc1Nc1ncc2c(n1)N(C)c1ccccc1C(=O)N2 [XMD8-87] | 32.0 |  |  |  | CPE % Efficacy [1, 4]: 88.0%; pEC50 [1, 4]: 4.95 |
| Cc1nc2ccc(Oc3ccc(F)cc3)cc2c(=O)n1C[C@H]1CCCN(C(C)C)C1 [YIL 781] | 0.0 |  |  |  | CPE % Efficacy [1, 4]: 53.5%; pEC50 [1, 4]: 4.95 |
| CC(NC(=O)[C@H](Cc1ccccc1)NC(=O)OCc1ccccc1)C(=O)CF (stereo partly drawn) [Z-FA-FMK, reference compound] |  |  |  |  | % Cytotox (Vero E6 cells; [7]): <30%; CPE % Efficacy [1, 8]: 104.8%; pEC50 [1]: 6.89 |
| CC(C)C[C@H](NC(=O)CNC(=O)OCc1ccccc1)C(=O)N[C@@H](Cc1ccccc1)C(=O)CCl [Z-Gly-Leu-Phe-chloromethyl ketone, reference compound] (Cbz-Gly-Leu-Phe-CH2Cl) |  |  |  |  | % Cytotox (Vero E6 cells; [7]): <30%; CPE % Efficacy [1, 8]: 87.2%; pEC50 [1]: 5.89 |
| COc1cc2c(Nc3ccc(NC(=O)c4ccccc4)cc3)ncnc2cc1OCCCN1CCOCC1 [ZM-447439] | 38.3 | 12.6 |  |  | CPE % Efficacy [1, 4]: 49.6%; pEC50 [1, 4]: 4.85 |
| CC1(CN2CCC(n3c(=O)[nH]c4ccccc43)CC2)OCc2ccccc2-n2cccc21.O=C(O)/C=C\C(=O)O (stereo not drawn) [Zaldaride maleate] | 0.0 |  | 4.95 | 81.7 |  |
| O=C(CCC1CCN(Cc2ccccc2)CC1)c1ccc2c(c1)NCCCC2.O=C(O)/C=C/C(=O)O [Zanapezil fumerate] | 0.0 |  | 4.95 | 63.3 |  |
| O[C@@H]1[C@@H](O)[C@@H](O)CO[C@H]1O [alpha-L-Arabinopyranose, reference compound] |  |  |  |  | % Cytotox (Vero E6 cells; [7]): <30%; CPE % Efficacy [1, 8]: 104.0%; pEC50 [1]: 5.62 |
